The values that follow come from patent US10849901B2, “Arf6 inhibitors and methods of synthesis and use thereof” (Navigen, Inc., priority 2014, dated 2020).

The term IC50 denotes the concentration at which inhibition is half-maximal.

This assay deals with Arf6 (Homo sapiens (Human), UniProt P62330). Kind of assay: Fluorometric assay for Arf6 nucleotide exchange catalyzed by ARNO Sec7 domain (GTP-BODIPY FL). The format is biochemical. The method, then:
FIGS. 1A-1D: Fluorometric high throughput assay for Arf6 nucleotide exchange catalyzed by ARNO Sec7 domain. FIG. 1A: Principle of the assay. FIG. 1B: SDS-PAGE analysis of N-terminally His-tagged Arf6(14-175) and ARNO(50-255) purified from the E. coli cultures by immobilized metal affinity chromatography. FIG. 1C: Correlation between signal intensity and ARNO concentration. The assay was performed using 50 mM Tris-HCl, pH 7.5, 1 mM MgCl2, 0.01% TX-100, 1% DMSO, 50 nM GTP-BODIPY FL, supplemented with ARNO-Sec7 at indicated concentrations in the absence or in the presence of 0.2 μM Arf6-GDP. Fluorescence intensities were monitored using a Synergy 4 plate reader (BioTek) at the excitation and emission wavelengths of 490 nm and 520 nm, respectively. FIG. 1D: Time course of apparent inhibitory potency of GDP. The assay was performed in automated mode using a Matrix PlateMate liquid handler.
The primary biochemical assay uses a fluorometric assay for monitoring the replacement of bound nucleotide with a fluorogenic GTP derivative bearing a BODIPY FL moiety, allowing for the identification of compounds that can inhibit this exchange (see FIG. 1A). In certain embodiments, the methods disclosed herein may exploit the reduction of intramolecular fluorescence quenching of the modified nucleotide upon its binding to the target protein (see, e.g., McEwen D P, Gee K R, Kang H C, Neubig R R. Fluorescent BODIPY-GTP analogs: real-time measurement of nucleotide binding to G proteins. Anal Biochem. 2001 Apr. 1; 291(1): 109-17).
The fluorometric assay formatted for 96-well microtiter plates has passed quality control based on the following criteria: i) S/B ratio of 4-fold and Z′-factor of 0.61; ii) linear correlation between signal intensity and ARNO concentration (see FIG. 1C); iii) sufficiently reproducible inhibitory effects of the reference inhibitor GDP for assay durations up to at least 1 hour (see FIG. 1D); and iv) lack of apparent fluorescence quenchers among 400 randomly selected compounds. The assay is amenable to automation with a throughput of approximately 5,000 data points per 8 hours.

[1] abbreviates: 200 nM Arf6 assay, read-out: IC50 (μM) 200 nM Arf6.
The mark [2] stands for this setting: 20 nM Arf6 assay, read-out: IC50 (μM) 20 nM Arf6.

Where two headings read alike, the source gives them in different places.

Arf6, sequence (P62330 14-175): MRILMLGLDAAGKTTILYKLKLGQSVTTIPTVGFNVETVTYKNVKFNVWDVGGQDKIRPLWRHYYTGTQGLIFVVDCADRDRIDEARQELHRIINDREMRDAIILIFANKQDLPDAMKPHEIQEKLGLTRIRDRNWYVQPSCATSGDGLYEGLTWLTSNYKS

Regarding `COc1ccc(-c2c(Cc3ccccc3)nn3c(=O)cc(-c4ccc([N+](=O)[O-])cc4)[nH]c23)cc1` [Compound 55], the IC50 under setting [1] was found to be 3.1 µM.
As for `CN(C)C(=O)c1ccc(-c2cc(=O)n3nc(Cc4ccccc4)c(-c4ccc(Cl)cc4)c3[nH]2)cc1` [Compound 56], the IC50 by setting is: under setting [2], 3.2 µM; under setting [1], 2.6 µM.
As for `Cc1nn2c(=O)cc(-c3ccc([N+](=O)[O-])cc3)[nH]c2c1-c1cccc(Cl)c1Cl` [Compound 57], the IC50 under setting [2] worked out at 3.2 µM.
For the molecule `N#Cc1ccc(-c2cc(=O)n3nc(C4CC4)c(-c4ccc(Cl)cc4)c3[nH]2)cc1` [Compound 58], the IC50 under setting [2] amounted to 3.2 µM.
In the case of `O=c1cc(-c2ccc([N+](=O)[O-])cc2)[nH]c2c(-c3ccccc3)c(Cc3ccccc3)nn12` [Compound 59], the IC50 under setting [1] came out at 3.2 µM.
For the molecule `O=c1cc(-c2ccc([N+](=O)[O-])cc2)[nH]c2c(-c3ccc(Cl)cc3)cnn12` [Compound 60], the IC50 under setting [1] was 3.2 µM.
Take `CCC(=O)Nc1cccc(-c2cc(=O)n3nc(C(F)(F)F)c(-c4ccc(Cl)cc4)c3[nH]2)c1` [Compound 61]: the IC50 under setting [2] was found to be 3.3 µM.
Consider `O=c1cc(-c2ccccc2Br)[nH]c2c(-c3ccc(Cl)cc3)c(C(F)(F)F)nn12` [Compound 62], for which, under setting [2], the IC50 came out at 3.3 µM.
In the case of `O=c1cc(-c2ccc([N+](=O)[O-])cc2)[nH]c2c(-c3ccc(Cl)cc3)c(CC3CCOCC3)nn12` [Compound 63], the IC50 under setting [2] was 3.6 µM.
Turning to `COc1ccc(Cc2nn3c(=O)cc(-c4ccc([N+](=O)[O-])cc4)[nH]c3c2-c2ccccc2)cc1` [Compound 64], under setting [1], the IC50 was found to be 3.6 µM.
In the case of `NC(=O)c1ccc(-c2cc(=O)n3nc(Cc4ccccc4)c(-c4ccc(Cl)cc4)c3[nH]2)cc1` [Compound 66], the IC50 runs as follows: under setting [2], 3.7 µM; under setting [1], 2.8 µM.
Regarding `CC(=O)Nc1ccc(-c2cc(=O)n3nc(C(F)(F)F)c(-c4ccc(Cl)cc4)c3[nH]2)cc1` [Compound 67], under setting [2], the IC50 was 3.7 µM.
With `Cc1nn2c(=O)cc(-c3ccc(NS(=O)(=O)Cc4ccccc4)cc3)[nH]c2c1-c1ccc(Cl)cc1` [Compound 68], the IC50 under setting [2] was 3.8 µM.
Still for that read-out and setting: for `Cc1nc2c(=O)[nH]c(-c3ccc([N+](=O)[O-])cc3)nn2c1-c1ccc(Cl)cc1` [Compound 69] the value was 4 µM; for `Cc1nn2c(=O)cc(-c3cccc(-c4ccncc4)c3)[nH]c2c1-c1ccc(Cl)cc1` [Compound 70], 4.1 µM; for `COC(=O)c1ccc(-c2cc(=O)n3nc(C4CC4)c(-c4ccc(Cl)cc4)c3[nH]2)cc1` [Compound 71], 4.1 µM.
Turning to `O=c1cc(-c2ccc([N+](=O)[O-])cc2)[nH]c2c(-c3ccccc3)c(C(F)(F)F)nn12` [Compound 72], the IC50 turned out to be 4.2 µM under setting [2] and 3.8 µM under setting [1].
Regarding `Cc1nn2c(=O)cc(-c3ccc([N+](=O)[O-])cc3)[nH]c2c1-c1ccc(Cl)c(F)c1` [Compound 73], the IC50 under setting [2] was 4.2 µM.
Consider `CC(=O)Nc1cccc(-c2cc(=O)n3nc(C(F)(F)F)c(-c4ccc(Cl)cc4)c3[nH]2)c1` [Compound 74], for which, under setting [2], the IC50 turned out to be 4.3 µM.
Consider `COCC(=O)Nc1ccc(-c2cc(=O)n3nc(C(F)(F)F)c(-c4ccc(Cl)cc4)c3[nH]2)cc1` [Compound 75], for which the IC50 under setting [2] was 4.4 µM.
With `Cc1nn2c(=O)cc(-c3ccc([N+](=O)[O-])cc3)[nH]c2c1-c1ccc(Cl)cc1Cl` [Compound 76], the IC50 under setting [2] came out at 4.5 µM.
On to `O=c1cc(-c2ccc([N+](=O)[O-])cc2)[nH]c2c(-c3ccc(Cl)cc3)c(C3CCOCC3)nn12` [Compound 77], for which the IC50 under setting [2] is 5.1 µM.
As for `Nc1ccc(-c2cc(=O)n3nc(C(F)(F)F)c(-c4ccc(Cl)cc4)c3[nH]2)cc1` [Compound 78], under setting [2], the IC50 was found to be 5.2 µM.
As to `N#Cc1cccc(-c2cc(=O)n3nc(C4CC4)c(-c4ccc(Cl)cc4)c3[nH]2)c1` [Compound 79], the IC50 under setting [2] worked out at 5.5 µM.
For the molecule `O=c1cc(-c2ccc([N+](=O)[O-])cc2)[nH]c2c(-c3ccc(Cl)cc3)c(CN3CCOCC3)nn12` [Compound 80], the IC50 under setting [2] was determined as 5.9 µM.
For `Cc1nn2c(=O)cc(-c3ccc([N+](=O)[O-])cc3)[nH]c2c1Cc1ccc(Cl)cc1` [Compound 81], the 50% inhibitory concentration (IC50) under setting [2] worked out at 6 µM.
Same read-out and setting: next, `CC(C)(C)c1nn2c(=O)cc(-c3ccccn3)[nH]c2c1-c1ccc(Cl)cc1` [Compound 82]: 6 µM.
Consider `COc1ccc(-c2cc(=O)n3nc(Cc4ccccc4)c(-c4ccc(Cl)cc4)c3[nH]2)cc1` [Compound 83], for which the IC50 under setting [1] stood at 6.2 µM.
As for `CC(C)(C)c1nn2c(=O)cc(-c3cccnc3)[nH]c2c1-c1ccc(Cl)cc1` [Compound 84], the IC50 under setting [2] came to 6.4 µM.
Still for that read-out and setting: for `CC(C)(C)c1nn2c(=O)cc(-c3cccc(C(N)=O)c3)[nH]c2c1-c1ccc(Cl)cc1` [Compound 85] the value was 6.6 µM; for `CC(C)(C)c1nn2c(=O)cc(-c3cccc(C(=O)O)c3)[nH]c2c1-c1ccc(Cl)cc1` [Compound 86], 6.6 µM; for `CC(C)(C)c1nn2c(=O)cc(-c3cccc(S(C)(=O)=O)c3)[nH]c2c1-c1ccc(Cl)cc1` [Compound 87], 6.7 µM.
On to `Nc1cccc(-c2cc(=O)n3nc(C(F)(F)F)c(-c4ccc(Cl)cc4)c3[nH]2)c1` [Compound 88], for which the IC50 under setting [2] was found to be 7 µM.
For `O=c1cc(Cc2ccccc2)[nH]c2c(-c3ccccc3)c(-c3ccccc3)nn12` [Compound 89], under setting [1], the IC50 came to 7 µM.
Consider `O=c1cc(-c2ccc([N+](=O)[O-])cc2)[nH]c2c(-c3ccc(Cl)cc3)c(CO)nn12` [Compound 90], for which, under setting [2], the IC50 is 7.8 µM.
For `CS(=O)(=O)c1ccc(-c2cc(=O)n3nc(C4CC4)c(-c4ccc(Cl)cc4)c3[nH]2)cc1` [Compound 91], the IC50 under setting [2] was determined as 7.9 µM.
Consider `O=C(O)c1ccccc1-c1cc(=O)n2nc(C(F)(F)F)c(-c3ccc(Cl)cc3)c2[nH]1` [Compound 92], for which the IC50 under setting [2] was found to be 8.1 µM.
Turning to `Cc1nn2c(=O)cc(-c3ccc(F)cc3)[nH]c2c1-c1ccc(Cl)cc1` [Compound 93], the IC50 under setting [2] was found to be 8.2 µM.
For the molecule `Cc1nn2c(=O)cc(-c3ccc([N+](=O)[O-])cc3)[nH]c2c1-c1ccc(S(C)(=O)=O)cc1` [Compound 94], under setting [2], the IC50 was determined as 8.8 µM.
With `O=c1cc(-c2ccccc2)[nH]c2c(-c3ccccc3)c(Cc3ccccc3)nn12` [Compound 95], the IC50 under setting [1] came out at 9.4 µM.
Take `CCS(=O)(=O)Nc1ccc(-c2cc(=O)n3nc(C)c(-c4ccc(Cl)cc4)c3[nH]2)cc1` [Compound 96]: under setting [2], the IC50 turned out to be 10 µM.
With `CCNC(=O)Nc1ccc(-c2cc(=O)n3nc(C)c(-c4ccc(Cl)cc4)c3[nH]2)cc1` [Compound 97], the concentration for half-maximal inhibition (IC50) under setting [2] amounted to 11 µM.
In the case of `Cc1c(Cc2ccccc2)nn2c(=O)cc(-c3ccc([N+](=O)[O-])cc3)[nH]c12` [Compound 98], the IC50 under setting [2] was determined as 11 µM.
Turning to `O=c1cc(Cc2ccccc2)[nH]c2c(-c3ccc(Cl)cc3)c(Cc3ccccc3)nn12` [Compound 99], the IC50 under setting [1] was 11 µM.
Regarding `O=[N+]([O-])c1ccc(C2=CC(O)n3nc(-c4cccc(Cl)c4)cc3N2)cc1` (centres unmarked) [Compound 100], the IC50 runs as follows: under setting [2], 13 µM; under setting [1], 10 µM.
As for `Cc1nn2c(=O)cc(-c3ccc([N+](=O)[O-])cc3)[nH]c2c1-c1ccc(OC(F)(F)F)cc1` [Compound 101], the IC50 under setting [2] was found to be 13 µM.
Regarding `O=c1cc(Cc2cccnc2)[nH]c2c(-c3ccc(Cl)cc3)c(C(F)(F)F)nn12` [Compound 102], the IC50 by setting is: under setting [2], 14 µM; under setting [1], 17 µM.
In the case of `Cc1nn2c(=O)cc(C3CCCCC3)[nH]c2c1-c1ccc(Cl)cc1` [Compound 103], the IC50 under setting [2] came out at 14 µM.
Regarding `O=c1cc(-c2ccc([N+](=O)[O-])cc2)[nH]c2c(-c3ccc(Cl)cc3)c(C3CC3)nn12` [Compound 104], the IC50 under setting [2] worked out at 14 µM.
As to `Cc1nn2c(=O)cc(-c3ccc(Cl)cc3)[nH]c2c1-c1ccc(F)cc1` [Compound 105], the IC50 under setting [1] came to 15 µM.
With `Cc1nn2c(=O)cc(C3CCCC3)[nH]c2c1-c1ccc(Cl)cc1` [Compound 106], the IC50 under setting [2] was 16 µM.
For the molecule `O=C(O)c1ccc(-c2cc(=O)n3nc(C4CC4)c(-c4ccc(Cl)cc4)c3[nH]2)cc1` [Compound 107], the IC50 under setting [2] amounted to 16 µM.
For the molecule `N#Cc1ccc(-c2cc(=O)c3nc(C4CC4)c(-c4ccc(Cl)cc4)n3[nH]2)cc1` [Compound 108], the IC50 under setting [2] turned out to be 16 µM.
`COc1ccc(-c2c(C)nn3c(=O)cc(-c4ccc([N+](=O)[O-])cc4)[nH]c23)cc1` [Compound 109]: the IC50 under setting [1] turned out to be 17 µM.
As to `Cc1nn2c(=O)cc(-c3ccc([N+](=O)[O-])cc3)[nH]c2c1C1CCCC1` [Compound 110], the IC50 under setting [2] is 19 µM.
Turning to `O=C(Nc1cccc(-c2cc(=O)n3nc(C(F)(F)F)c(-c4ccc(Cl)cc4)c3[nH]2)c1)c1ccccc1` [Compound 111], under setting [2], the IC50 was 20 µM.
Take `N#Cc1ccc(-c2cc(=O)n3nc(C4CCOCC4)c(-c4ccc(Cl)cc4)c3[nH]2)cc1` [Compound 112]: the IC50 under setting [2] was determined as 20 µM.
